Source: the supplement of paper PMC10331698
± gives the standard deviation of the averaged measurements.

Experiments:
Assay in all cases: level (log10 ratio to DMSO vehicle control); higher = higher biomarker level / cell amount than vehicle control
Conditions in all cases: in DMSO
Hexafluoroglutaric acid = compound: O=C(O)C(F)(F)C(F)(F)C(F)(F)C(=O)O [Hexafluoroglutaric acid]
Procedure: (§1)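 BioMAP Diversity Plus panel of 12 human primary cell co-culture systems (3C, 4H, LPS, SAg, BT, BF4T, BE3C, CASM3C, HDF3CGF, KF3CT, MyoF, Mphg). Compounds were added 1 h before stimulation and left for 24 h (MyoF 48 h; BT 72 h for soluble read-outs or 6 d for IgG). Biomarkers were read by ELISA, cytotoxicity by SRB, PBMC viability and proliferation by Alamar Blue. Each well value was divided by the mean of 8 DMSO control wells on the same plate and log10 transformed; duplicate blinded samples were tested at 4 concentrations.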

[1] = compound: O=S(=O)(O)C(F)(F)C(F)(F)C(F)(F)C(F)(F)C(F)(F)C(F)(F)C(F)(F)C(F)(F)F [Potassium perfluorooctanesulfonate]
Procedure: as §1

Perfluorohexanoic acid = compound: O=C(O)C(F)(F)C(F)(F)C(F)(F)C(F)(F)C(F)(F)F [Perfluorohexanoic acid]
Procedure: as §1

[2] = compound: O=S(=O)(O)C(F)(F)C(F)(F)C(F)(F)C(F)(F)F [Perfluorobutanesulfonic acid]
Procedure: as §1

[3] = compound: FC(F)(F)C(F)(F)C(F)(F)C(F)(F)C(F)(F)C(F)(F)C(F)(F)CCI [1-Iodo-1H,1H,2H,2H-perfluorononane]
Procedure: as §1

[4] = compound: O=S(=O)(O)C(F)(F)C(F)(F)C(F)(F)C(F)(F)C(F)(F)C(F)(F)C(F)(F)C(F)(F)F [Perfluorooctanesulfonic acid]
Procedure: as §1

[5] = compound: O=P(O)(O)CCC(F)(F)C(F)(F)C(F)(F)C(F)(F)C(F)(F)C(F)(F)C(F)(F)C(F)(F)F [((Perfluorooctyl)ethyl)phosphonic acid]
Procedure: as §1

Test System	level (log10) (Hexafluoroglutaric acid; 6700 nM)	level (log10) (Hexafluoroglutaric acid; 20000 nM)	level (log10) (Hexafluoroglutaric acid; 60000 nM)	level (log10) ([1]; 6700 nM)	level (log10) ([1]; 20000 nM)	level (log10) ([1]; 60000 nM)	level (log10) (Perfluorohexanoic acid; 6700 nM)	level (log10) (Perfluorohexanoic acid; 20000 nM)	level (log10) (Perfluorohexanoic acid; 60000 nM)	level (log10) ([2]; 6700 nM)	level (log10) ([2]; 20000 nM)	level (log10) ([2]; 60000 nM)	level (log10) ([3]; 6700 nM)	level (log10) ([3]; 20000 nM)	level (log10) ([4]; 6700 nM)	level (log10) ([4]; 20000 nM)	level (log10) ([4]; 60000 nM)	level (log10) ([5]; 6700 nM)	level (log10) ([5]; 20000 nM)	level (log10) ([5]; 60000 nM)
HDF3CGF:Collagen III	-0.0065 ± 0.015	-0.0275 ± 0.00071	-0.0125 ± 0.00071	-0.013 ± 0.0099	-0.0525 ± 0.042	-0.106 ± 0.017	0.0515 ± 0.013	0.0305 ± 0.0092	-0.0245 ± 0.071	-0.013 ± 0.048	0.035 ± 0.016	0.047 ± 0.016	-0.063 ± 0.023	-0.138 ± 0.028	-0.024 ± 0.031	-0.0155 ± 0.015	-0.0585 ± 0.013	-0.119 ± 0.011	-0.193	-0.281 ± 0.029
HDF3CGF:EGFR	-0.021 ± 0.061	-0.0285 ± 0.056	-0.021 ± 0.072	-0.0055 ± 0.019	-0.0305 ± 0.012	-0.0905 ± 0.029	0.027 ± 0.017	0.03 ± 0.021	0.003 ± 0.081	0.0105 ± 0.005	-0.032 ± 0.048	-0.0205 ± 0.032	0.016	0.0295 ± 0.023	-0.0205 ± 0.0064	-0.0495 ± 0.043	-0.04 ± 0.018	-0.0125 ± 0.016	-0.045 ± 0.024	-0.126 ± 0.059
HDF3CGF:M-CSF	-0.0015 ± 0.013	-0.006 ± 0.033	-0.0285 ± 0.029	0.0165 ± 0.0078	0.012 ± 0.0014	-0.151 ± 0.018	-0.015 ± 0.059	0.013 ± 0.021	-0.006 ± 0.05	0.011 ± 0.0085	0.0045 ± 0.0035	0.0025 ± 0.005	-0.0895 ± 0.049	-0.12 ± 0.064	0.0225 ± 0.018	0.018 ± 0.013	-0.075 ± 0.0042	0.0235 ± 0.016	-0.009 ± 0.0028	-0.113 ± 0.016
HDF3CGF:MMP-1	0.0195 ± 0.0092	0.002 ± 0.02	-0.0045 ± 0.021	-0.0075 ± 0.011	-0.0155 ± 0.0092	-0.0025 ± 0.005	0.0155 ± 0.036	0.0045 ± 0.016	-0.0145 ± 0.043	0.0085 ± 0.011	0.002 ± 0.013	-0.0165 ± 0.036	0.011 ± 0.017	0.061 ± 0.04	-0.0145 ± 0.0064	-0.016 ± 0.0014	0.0085 ± 0.015	-0.019 ± 0.011	-0.021 ± 0.0057	-0.05 ± 0.0042
HDF3CGF:PAI-I	-0.0115 ± 0.016	-0.007 ± 0.014	0.0075 ± 0.021	0.0485 ± 0.0064	0.011 ± 0.021	-0.181 ± 0.18	0.0415 ± 0.044	-0.0095 ± 0.021	0.025 ± 0.075	-0.017 ± 0.034	0.007 ± 0.045	-0.0075 ± 0.03	0.0075 ± 0.023	-0.0095 ± 0.032	0.006	0.0125 ± 0.011	-0.0015 ± 0.025	-0.028 ± 0.035	-0.101 ± 0.06	-0.2695 ± 0.0021
HDF3CGF:Proliferation 72hr	-0.011 ± 0.059	-0.013 ± 0.028	-0.008 ± 0.05	0.13 ± 0.079	0.155 ± 0.09	-0.732 ± 0.039	0.04 ± 0.0014	0.015 ± 0.034	0.0305 ± 0.037	-0.0045 ± 0.013	-0.0195 ± 0.015	0.0155 ± 0.05	-0.689 ± 0.0092	-0.815 ± 0.25	0.141 ± 0.05	0.15 ± 0.048	-0.544 ± 0.18	0.017 ± 0.065	-0.0105 ± 0.087	-0.374 ± 0.034
HDF3CGF:SRB	-0.03 ± 0.083	-0.0095 ± 0.097	0.0245 ± 0.12	-0.033 ± 0.052	-0.005 ± 0.052	-0.0695 ± 0.053	0.0135 ± 0.013	0.0305 ± 0.022	-0.0055 ± 0.0092	0.018 ± 0.03	0.023 ± 0.013	0.004 ± 0.033	0.016 ± 0.045	-0.052 ± 0.071	0.008 ± 0.037	-0.009 ± 0.027	-0.0365 ± 0.035	0.0285 ± 0.021	-0.0095 ± 0.033	-0.011 ± 0.033
